Measured values: DBAASP
In brackets after ≈: the same amount, converted by molar mass. Blank lines part the entries; values can stand above or below the molecule they belong to.

Key:
Test in all cases: ≥ marks a high value that may be exact or a test limit, other limits are often not marked, values filed in µg/mL are converted to µM
[1] = tested on: Bacillus cereus AS1.126
[2] = tested on: Enterococcus faecalis CGMCC 1.595
[3] = tested on: Enterococcus faecium CGMCC 1.2334
[4] = tested on: Escherichia coli AS1.349
[5] = tested on: Lactococcus lactis AS1.1690
[6] = tested on: Pseudomonas aeruginosa CGMCC 1.860
[7] = tested on: Staphylococcus aureus AS1.72
[8] = tested on: Micrococcus luteus ATCC 4698
[9] = tested on: Bacillus subtilis 168
[10] = tested on: Candida albicans F7-39/IDE99
[11] = tested on: Escherichia coli B
[12] = tested on: Micrococcus luteus CCM 144
[13] = tested on: Pseudomonas aeruginosa ATCC 27853
[14] = tested on: Pseudomonas aeruginosa
[15] = tested on: Staphylococcus aureus ATCC 43300
[16] = tested on: Staphylococcus aureus
[17] = tested on: Staphylococcus epidermidis
[18] = tested on: Bacillus subtilis ATCC 6633
[19] = tested on: Candida albicans ATCC 90028
[20] = tested on: Escherichia coli ATCC 8739
[21] = tested on: Staphylococcus aureus ATCC 6538
[22] = tested on: Pseudomonas aeruginosa H1001
[23] = tested on: Acinetobacter baumannii ATCC 19606
[24] = tested on: Acinetobacter baumannii
[25] = tested on: Escherichia coli ATCC 25922
[26] = tested on: Escherichia coli
[27] = tested on: Klebsiella pneumoniae ATCC 13883
[28] = tested on: Klebsiella pneumoniae
[29] = tested on: Staphylococcus aureus ATCC 29213
[30] = tested on: Staphylococcus aureus MR

- MIC [1]: ≥ 100 µM
- MIC [2]: ≥ 100 µM
- MIC [3]: ≥ 100 µM
- MIC [4]: ≥ 100 µM
- MIC [5]: ≥ 100 µM
- MIC [6]: ≥ 100 µM
- MIC [7]: ≥ 100 µM
Structure (SMILES): CC(C)[C@H](N)C(=O)N[C@@H](Cc1c[nH]c2ccccc12)C(=O)N[C@@H](CCCN=C(N)N)C(=O)N[C@@H](Cc1cnc[nH]1)C(=O)N[C@@H](Cc1c[nH]c2ccccc12)C(=O)O [VWRHW]

- MIC [8]: 12 µM (≈ 25.3 µg/mL)
Structure (SMILES): C[C@@H](O)[C@H](NC(=O)[C@@H]1CSSC[C@H](NC(=O)[C@H](Cc2ccc(O)cc2)NC(=O)CNC(=O)CNC(=O)[C@@H](N)CO)C(=O)NCC(=O)NCC(=O)N[C@@H](Cc2c[nH]c3ccccc23)C(=O)N[C@@H](CCCCN)C(=O)N[C@@H](CCCN=C(N)N)C(=O)N[C@@H](CCCCN)C(=O)N[C@@H](CCCN=C(N)N)C(=O)N1)C(=O)N[C@@H](CO)C(=O)N[C@@H](Cc1ccc(O)cc1)C(=O)N[C@@H](CCCN=C(N)N)C(=O)N[C@@H](CO)C(=O)NCC(=O)O [SGGYCGGWKRKRCTSYRSG]

- MIC [9]: ≥ 49 µM
- MIC [10]: ≥ 100 µM
- MIC [11]: ≥ 100 µM
- MIC [12]: 5.8 µM (≈ 10.5 µg/mL)
- MIC [13]: 98 µM (≈ 177 µg/mL)
- MIC [14]: > 100 µM
- MIC [15]: > 100 µM
- MIC [16]: > 100 µM
- MIC [17]: ≥ 100 µM
Structure (SMILES): CC[C@H](C)[C@H](NC(=O)CN)C(=O)N[C@@H](CC(C)C)C(=O)N[C@@H](CO)C(=O)N[C@@H](CO)C(=O)N[C@@H](CC(C)C)C(=O)N[C@@H](Cc1c[nH]c2ccccc12)C(=O)N[C@@H](CCCCN)C(=O)N[C@@H](CCCCN)C(=O)N1CCC[C@H]1C(=O)N[C@@H](CCCCN)C(=O)N[C@@H](CCCCN)C(=O)N[C@H](C(=O)N[C@H](C(=O)N[C@@H](C)C(=O)N[C@@H](CCCCN)C(N)=O)[C@@H](C)CC)[C@@H](C)CC [GILSSLWKKPKKIIAK]

- MIC [18]: 12.5 µM (≈ 25.3 µg/mL)
- MIC [19]: ≥ 100 µM
- MIC [20]: ≥ 50 µM
- MIC [15]: 25 µM (≈ 50.5 µg/mL)
- MIC [21]: 3.1 µM (≈ 6.27 µg/mL)
Structure (SMILES): CC[C@H](C)[C@H](NC(=O)CN)C(=O)N[C@@H](CC(C)C)C(=O)N[C@@H](CO)C(=O)N[C@H](C(=O)N[C@H](C(=O)N[C@@H](Cc1ccccc1)C(=O)N[C@@H](CCCCN)C(=O)N[C@@H](C)C(=O)NCC(=O)N[C@@H](CCCCN)C(=O)NCC(=O)N[C@H](C(=O)N[C@H](C(=O)N[C@H]1CSSC[C@@H](C(=O)O)NC(=O)[C@H](CC(C)C)NC(=O)CNC(=O)[C@H](CO)NC(=O)[C@H](CC(C)C)NC(=O)CNC1=O)C(C)C)[C@@H](C)CC)C(C)C)[C@@H](C)O [GILSTVFKAGKGIVCGLSGLC]

- MIC [22]: ≥ 42.4 µM
Structure (SMILES): CC[C@H](C)[C@H](NC(=O)[C@H](C)N)C(=O)N[C@@H](CCCCN)C(=O)N[C@@H](CC(C)C)C(=O)N[C@@H](CC(C)C)C(=O)N[C@@H](CS)C(=O)N[C@@H](CCCN=C(N)N)C(=O)N[C@H](C(=O)N[C@@H](Cc1cnc[nH]1)C(=O)N[C@@H](CCCCN)C(=O)O)C(C)C [AIKLLCRVHK]

- MIC [22]: 0.0362 µM (≈ 0.0901 µg/mL)
Structure (SMILES): CC[C@H](C)[C@H](NC(=O)[C@H](CCCN=C(N)N)NC(=O)[C@H](CCCN=C(N)N)NC(=O)[C@@H]1CCCN1C(=O)[C@@H]1CCCN1C(=O)[C@H](CCCN=C(N)N)NC(=O)[C@@H]1CCCN1C(=O)[C@H](CCCN=C(N)N)NC(=O)[C@@H]1CCCN1C(=O)[C@H](CC(C)C)NC(=O)[C@H](Cc1ccc(O)cc1)NC(=O)[C@@H]1CCCN1C(=O)[C@@H]1CCCN1C(=O)[C@H](CCCCN)NC(=O)[C@H](CCCN=C(N)N)NC(=O)[C@@H](N)C(C)C)C(=O)N[C@@H](Cc1ccc(O)cc1)C(=O)N[C@@H](CC(N)=O)C(=O)N[C@@H](CCCN=C(N)N)C(=O)NCC(=O)O [VRKPPYLPRPRPPRRIYNRG]

- MIC [23]: 0.707 µM (≈ 1.66 µg/mL)
- MIC [24]: 0.707 µM (≈ 1.66 µg/mL)
- MIC [25]: 0.177 µM (≈ 0.415 µg/mL)
- MIC [26]: 0.25 µM (≈ 0.587 µg/mL)
- MIC [27]: 0.707 µM (≈ 1.66 µg/mL)
- MIC [28]: 2.83 µM (≈ 6.65 µg/mL)
- MIC [13]: 2 µM (≈ 4.7 µg/mL)
- MIC [14]: 2.83 µM (≈ 6.65 µg/mL)
- MIC [29]: 0.354 µM (≈ 0.831 µg/mL)
- MIC [30]: 4 µM (≈ 9.4 µg/mL)
- MIC [16]: 1 µM (≈ 2.35 µg/mL)
Structure (SMILES): CC[C@H](C)[C@H](NC(=O)CN)C(=O)N[C@@H](CCCCN)C(=O)N[C@@H](CCCCN)C(=O)N[C@@H](Cc1c[nH]c2ccccc12)C(=O)N[C@H](C(=O)N[C@@H](CCCCN)C(=O)NCC(=O)N[C@H](C(=O)N[C@@H](C)C(=O)N[C@@H](CCCCN)C(=O)NCC(=O)N[C@H](C(=O)N[C@@H](C)C(=O)N[C@@H](CCCCN)C(=O)N[C@@H](CC(=O)O)C(=O)N[C@@H](CC(C)C)C(=O)N[C@@H](C)C(=O)N[C@@H](CCCCN)C(=O)N[C@@H](CCCCN)C(=O)N[C@H](C(=O)N[C@@H](CC(C)C)C(N)=O)[C@@H](C)CC)C(C)C)C(C)C)C(C)C [GIKKWVKGVAKGVAKDLAKKIL]

- MIC [22]: 5.82 µM (≈ 8 µg/mL)
Structure (SMILES): CC[C@H](C)[C@H](NC(=O)[C@H](CCSC)NC(=O)[C@H](Cc1c[nH]c2ccccc12)NC(=O)[C@H](Cc1c[nH]c2ccccc12)NC(=O)[C@H](CC(C)C)NC(=O)[C@@H](N)CCCCN)C(=O)N[C@@H](CCCN=C(N)N)C(=O)N[C@@H](CCCN=C(N)N)C(=O)N[C@@H](Cc1c[nH]c2ccccc12)C(=O)O [KLWWMIRRW]

- MIC [22]: 8.5 µM (≈ 16 µg/mL)
Structure (SMILES): CC(C)C[C@H](NC(=O)[C@@H](N)Cc1ccccc1)C(=O)N1CCC[C@H]1C(=O)N[C@@H](CCCCN)C(=O)N[C@@H](CCCCN)C(=O)N[C@@H](Cc1ccccc1)C(=O)N[C@@H](CCCN=C(N)N)C(=O)N[C@@H](Cc1c[nH]c2ccccc12)C(=O)N[C@@H](Cc1c[nH]c2ccccc12)C(=O)N[C@@H](CCCCN)C(=O)N[C@@H](Cc1ccc(O)cc1)C(=O)N[C@@H](CCCN=C(N)N)C(=O)N[C@@H](CCCCN)C(N)=O [FLPKKFRWWKYRK]

- MIC [22]: ≥ 173 µM
Structure (SMILES): CC[C@H](C)[C@H](NC(=O)[C@H](C)NC(=O)[C@@H](NC(=O)[C@H](CCCCN)NC(=O)[C@H](CCCCN)NC(=O)[C@H](Cc1cnc[nH]1)NC(=O)[C@@H](NC(=O)[C@H](CCCN=C(N)N)NC(=O)[C@@H](N)CS)C(C)C)[C@@H](C)CC)C(=O)N[C@@H](CO)C(=O)O [CRVHKKIAIS]

- MIC [18]: 25 µM (≈ 120 µg/mL)
- MIC [20]: 6.3 µM (≈ 30.3 µg/mL)
- MIC [15]: 25 µM (≈ 120 µg/mL)
- MIC [21]: 3.1 µM (≈ 14.9 µg/mL)
Structure (SMILES): CC[C@H](C)[C@H](NC(=O)CN)C(=O)N[C@@H](Cc1ccccc1)C(=O)N[C@@H](CO)C(=O)N[C@@H](CCCCN)C(=O)N[C@@H](Cc1ccccc1)C(=O)N[C@@H](C)C(=O)NCC(=O)N[C@@H](CCCCN)C(=O)NCC(=O)N[C@H](C(=O)N[C@@H](CCCCN)C(=O)N[C@@H](CC(N)=O)C(=O)N[C@@H](CC(C)C)C(=O)N[C@@H](CC(C)C)C(=O)N[C@H](C(=O)N[C@@H](CCCCN)C(=O)NCC(=O)N[C@H](C(=O)N[C@@H](CCCCN)C(=O)N[C@@H](CC(N)=O)C(=O)N[C@H](C(=O)NCC(=O)N[C@@H](CCCCN)C(=O)N[C@@H](CCC(=O)O)C(=O)N[C@H](C(=O)NCC(=O)N[C@@H](CCSC)C(=O)N[C@@H](CC(=O)O)C(=O)N[C@H](C(=O)N[C@H](C(=O)N[C@@H](CCCN=C(N)N)C(=O)N[C@H](C(=O)NCC(=O)N[C@H](C(=O)N[C@@H](CC(=O)O)C(=O)N[C@H](C(=O)N[C@@H](C)C(=O)NCC(=O)N[C@H]1CSSC[C@@H](C(=O)O)NC(=O)[C@H](CCC(=O)O)NC(=O)CNC(=O)[C@H](CCCCN)NC(=O)[C@H]([C@@H](C)CC)NC(=O)[C@H](CCCCN)NC1=O)[C@@H](C)CC)[C@@H](C)CC)[C@@H](C)O)[C@@H](C)CC)C(C)C)C(C)C)[C@@H](C)CC)C(C)C)C(C)C)[C@@H](C)CC [GIFSKFAGKGIKNLLVKGVKNIGKEVGMDVIRTGIDIAGCKIKGEC]
